Source: US12036224B2, “Formulations, methods, kits, and dosage forms for treating atopic dermatitis and for improved stability of an active pharmaceutical ingredient” (Libertas Bio, Inc., priority 2017, dated 2024)
In brackets after ≈: the same amount, converted by molar mass. Entries after “also recorded” stand apart in the source; their conditions may differ.

How the values were obtained:
[1] = HCl pH dependent solubility profile study; type: physicochemical; conditions: thermodynamic from solid
Excerpt: (§1) Analytical studies for 2-(1-(4-((4-(4-hydroxypiperidin-1-yl)phenyl)amino)-5-oxo-5,6-dihydropyrimido[4,5-d]pyridazin-2-yl)piperidin-4-yl)acetonitrile are provided below in Tables 1-3: Table 1 provides the results of an HCl pH dependent solubility profile study, Table 2 provides the results of an HCl solubility profile in organic solvents, and Table 3 provides the results of an HCl stress study.

[2] = HCl solubility profile in organic solvents; type: physicochemical; conditions: organic solvent or mixture
Excerpt: as §1

[3] = system: subjects with moderate-to severe atopic dermatitis; experiment: Phase 1b study in atopic dermatitis: safety and tolerability; type: in vivo, human
Experimental: The study conducted was a randomized, double-blind, placebo-controlled, multicenter, sequential dose escalation study in subjects with moderate-to severe atopic dermatitis. The study included a screening period (up to 30 days) and a treatment period for 4 weeks with a 14 day follow up period that concluded with an end-of-study visit. Three sequential cohorts of 20, 40 and 80 mg QD were evaluated. At each dose level a total of 12 subjects were enrolled with 9 subjects receiving Compound 1, and 3 subjects receiving matching placebos.
Assessment of safety: Safety was assessed by AEs, vital signs, 12-lead ECG, physical examination, and laboratory safety assessments.

JAK = experiment: Pre-clinical kinase inhibition, JAK; type: biochemical; conditions: pre-clinical studies
Excerpt: (§2) A formulation of the disclosure comprising 2-(1-(4-((4-(4-hydroxypiperidin-1-yl)phenyl)amino)-5-oxo-5,6-dihydropyrimido[4,5-d]pyridazin-2-yl)piperidin-4-yl)acetonitrile comprises a potent inhibitor of Spleen Tyrosine Kinase (SYK) and Janus Kinases (JAK).

[4] = system: lesional skin of subjects with atopic dermatitis; experiment: Phase 1b study in atopic dermatitis: skin biopsy biomarkers; type: in vivo, human
Excerpt: Assessment of Pharmacodynamics/Biomarker Parameters: • 1. Change from baseline in inflammatory markers in serum (including immune markers and CRP) • 2. Change from baseline in molecular skin biomarkers (inflammatory and barrier) • 3. Change from baseline in cellular markers (including reduction in inflammatory cells) • 4. Change from baseline in epidermal thickness and barrier markers in skin biopsies. Assessments of Efficacy Investigator's Global Assessment
For each subject, a maximum of four skin biopsies were collected during this study. Two punch biopsy samples (one from lesional skin and one from non-lesional skin) were collected at Day 1 and one punch biopsy was collected from the same lesional skin (outside the scar of the previous biopsies) at Day 15 (optional for subjects) and Day 29.
A panel of biological markers were assessed to determine the effect of Compound 1 on the disease process. These may include, but are not limited to: • Serum cytokines and inflammatory markers • Molecular skin biomarkers (inflammatory and barrier) • Circulating and tissue resident cellular phenotyping • Epidermal thickness and barrier markers from skin biopsies • Other biomarkers related autoimmune or inflammatory diseases Results: […]

[5] = system: rodent xenograft models of NHL and other hematologic malignancies; experiment: Rodent xenograft models of NHL and other hematologic malignancies; type: in vivo
Excerpt: as §2

[6] = system: patients with solid tumors and hematologic malignancies; experiment: Phase 1/2 trial in solid tumors and hematologic malignancies: response and serum markers; type: in vivo, human
Experimental: (§3) Methods: Phase 1/2 clinical trial in patients with solid tumors and hematologic malignancies evaluates escalating oral doses of the formulation disclosed herein at 10, 20, 30, 40, 50, 75 and 100 mg BID and 80 and 120 mg QD mg (NCT02440685). Phase 1 allows patients with solid tumors or hematologic malignancies; Phase 2 allows only patients with diffuse large B-Cell lymphoma (DLBCL), follicular lymphoma (FL) or mantle cell lymphoma (MCL). Endpoints include safety, tolerability, pharmacokinetics, serum markers of inflammation, and response using RECIST or Lugano Classification System, […]

[7] = system: ibrutinib-resistant cell lines; experiment: Pre-clinical proliferation in ibrutinib-resistant cell lines; type: cell-based
Excerpt: as §2

[8] = system: JAK/STAT pathway in T cells (primary); experiment: Inhibition of JAK/STAT pathway in T cells stimulated with various cytokines; type: cell-based; conditions: T cells (primary) stimulated by various cytokines
Experimental: FIG. 7A is a graph of the % of subjects to achieve EASI50 over time (Day 1 to Day 29) for a placebo and Compound 1 in the doses of 20 mg, 40 mg and 80 mg. FIG. 7B is a graph of the % of subjects to achieve EASI75 over time (Day 1 to Day 29) for a placebo and Compound 1 in the doses of 20 mg, 40 mg and 80 mg. […] FIG. 8A is a graph of the % CFB (percentage change from baseline) for EASI (decrease) for the placebo and Compound 1 in the doses of 20 mg, 40 mg and 80 mg. FIG. 8B is a graph of the % CFB for BSA (body surface area) (decrease) for the placebo and Compound 1 in the doses of 20 mg, 40 mg and 80 mg. FIG. 8C is a graph of the % CFB for IGA 0-1 (Investigator's Global Assessment) for the placebo and Compound 1 in the doses of 20 mg, 40 mg and 80 mg. FIG. 9 is a graph of day 15 plasma concentration for Compound 1 in the doses of 20 mg, 40 mg and 80 mg. […] In FIG. 10, the IC50 values were determined in biochemical kinase assays using purified partial or full length enzymes. FIG. 11 is a chart showing inhibition of Compound 1 in JAK/STAT pathway in T cells stimulated with various cytokines.

SYK = SYK (Homo sapiens, UniProt P43405); experiment: Pre-clinical kinase inhibition, SYK; type: biochemical; conditions: pre-clinical studies
Excerpt: as §2

[9] = system: IL-17-SYK mediated CCL20 release, human keratinocytes; experiment: Inhibition of IL17 mediated CCL20 release in keratinocytes; type: cell-based; conditions: single donor, n=3
Experimental: In FIG. 12, each bar represents mean and SEM for 3 replicates (n=3) of a single donor. FIG. 13 is a graph showing average weekly change in pruritus (NRS) for a placebo, and Compound 1 in the doses of 20 mg, 40 mg and 80 mg.

[10] = system: patients with solid tumors and hematologic malignancies; experiment: Phase 1/2 trial in solid tumors and hematologic malignancies: safety and tolerability; type: in vivo, human
Experimental: as §3

[11] = 10 mg-100 mg BID and 80-120 mg QD

N#CCC1CCN(c2nc(Nc3ccc(N4CCC(O)CC4)cc3)c3c(=O)[nH]ncc3n2)CC1 [Compound 1, 2-(1-(4-((4-(4-hydroxypiperidin-1-yl)phenyl)amino)-5-oxo-5,6-dihydropyrimido[4,5-d]pyridazin-2-yl)piperidin-4-yl)acetonitrile]
solubility ([1]; aqueous buffer, pH 4.5 Acetate Buffer, initial pH 4.50, end pH 4.56): 2.9 µg/mL (≈ 6.3 µM) | solubility ([1]; aqueous buffer, pH 5.5 Acetate Buffer, initial pH 5.52, end pH 5.12): 1 µg/mL (≈ 2.17 µM) | solubility ([1]; aqueous buffer, pH 6.8 Phosphate Buffer, initial pH 6.80, end pH 6.86): 2.7 µg/mL (≈ 5.86 µM) | solubility ([1]; aqueous buffer, pH 7.5 Phosphate Buffer, initial pH 7.55, end pH 6.96): 0.7 µg/mL (≈ 1.52 µM) | solubility ([1]; simulated gastric fluid, 0.1N HCl, end pH 1.23): 10800 µg/mL (≈ 23500 µM) | solubility ([1]; Water, end pH 2.62): 941 µg/mL (≈ 2040 µM) | solubility ([2]; EtOH): 5000 µg/mL (≈ 10800 µM) | solubility ([2]; IPA): 462 µg/mL (≈ 1000 µM) | solubility ([2]; MeOH): 4440 µg/mL (≈ 9630 µM) | changes in chemistry lab parameters ([3]; in vivo): No clinically significant changes in chemistry lab parameters except asymptomatic, mild-to-moderate transient elevations of CPK | changes in hematologic lab parameters including platelets, neutrophils and lymphocytes ([3]; in vivo): No clinically significant changes | changes in lipid profile ([3]; in vivo): No changes in lipid profile | serious infections or thromboembolic events ([3]; in vivo): No serious infections or thromboembolic events occurred | tolerability ([3]; patients with moderate to severe atopic dermatitis, 20, 40, 80 mg once daily): well tolerated; also recorded: very well tolerated at all dose levels | most common adverse events ([3]; predominantly Day 1): transient, mild headache and nausea | IC50 against JAK (JAK): low nM | T cell (CD3+) infiltration into all layers of the skin ([4]; 40 and 80 mg, Day 29): reduced | Myeloid DC (CD11c+) infiltration into all layers of the skin ([4]; 40 and 80 mg, as early as Day 15): reduced | cutaneous biomarkers (cellular infiltrates, immune and hyperplasia markers) ([4]; particularly in the mid and high dose): improvements in epidermal hyperplasia and cellular infiltrates observed as early as Day 15; also recorded: down regulates inflammatory pathways; also recorded: reversal of cutaneous biomarkers of inflammation | total skin thickness ([4]; skin biopsies, 20, 40 and 80 mg): Reductions in total skin thickness can be observed as early as Day 15 | tumor growth [5]: suppresses tumor growth | reduction in target lesions ([6]; 3 months, a FL patient (Lugano, 6 prior lines)): About 50% | response in a peripheral T-Cell lymphoma patient ([6]; after 2 months (Lugano, 2 prior lines)): stable disease and reduction of pruritus | CRP, IL-18, MIP1β, VCAM-1, TNFR2 (serum markers of inflammation) ([6]; all doses): Robust reduction | efficacy in NHL patients (in words) ([6]; in vivo): Encouraging preliminary evidence of efficacy | proliferation [7]: decreases proliferation | inhibition of JAK/STAT pathway [8]: strong inhibition | IC50 against SYK (SYK): low nM | inhibition of IL-17-SYK mediated CCL20 release [9]: inhibits IL-17-SYK mediated CCL20 release, from human keratinocytes, at levels similar to IL17 neutralizing antibodies | dose limiting adverse events [10, 11]: No dose limiting adverse events | tolerability [10, 11]: safe and well tolerated | MTD ([10]; dose escalation continues): has not been reached | grade of most drug-related adverse events ([10]; e.g. headache, fatigue): Gr 1/2
